Data on 78 molecules can be found in the METLIN SMRT retention time set (Domingo-Almenara et al. 2019).

Molecules are shown by their SMILES.

The series in a line: gradient 5% acetonitrile 3 min, to 50% in 2 min, to 85% in 15 min, held 3 min, 100 µL/min. The conditions noted are these: column: Zorbax Extend-C18 2.1 x 50 mm; eluents: water / acetonitrile, 0.1% formic acid. In short, it runs like this: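 Retention times come from adduct peaks that were picked computationally and then checked by hand. The standards, pure and pooled in mixtures of ~100 molecules, were run on a Zorbax Extend-C18 column (2.1 × 50 mm, 1.8 μm) at 100 μL/min with water and acetonitrile, each with 0.1% formic acid. Detection was by quadrupole time-of-flight mass spectrometry in positive and negative ionization mode, with a dead volume of 40 μL and a dwell volume of 900 μL.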
As to `Cc1nn(CC(=O)NCCN(C)C)c(=O)c2nc(-c3ccccc3)sc12`, the RP-LC retention time came out at 601 s.

As to `CCC1CN2C=NC(N3CCN(C(=O)c4ccc5c(c4)OCO5)CC3)=CC2=N1` (stereo not drawn), the RP-LC retention time worked out at 609 s.

Take `CC1(C(=O)NCc2ccc(Cl)cc2)CN(S(C)(=O)=O)CC(=O)N1Cc1ccccc1` (stereo not drawn): the RP-LC retention time was determined as 858 s.

`CCOc1ccc(/C=C/C(=O)Nc2nc(-c3ccc(C)cc3)cs2)cc1OC` had an RP-LC retention time of 1150 s.

On to `COc1ccc(CC(=O)N2CCC3(CC2)C(=O)N(C)c2ccccc23)cc1OC`, for which the RP-LC retention time turned out to be 752 s.

Molecule `O=C(N[C@H]1C[C@@H]2C[C@H]1CN2S(=O)(=O)c1ccc(C(F)(F)F)cc1)c1cccnc1` gave an RP-LC retention time of 794 s.

For `C=CCN1CC(c2nc3ccccc3n2CC(O)COc2cc(C)ccc2C)CC1=O` (stereo not drawn), the RP-LC retention time is 664 s.

The molecule `C=CCN(Cc1nc(-c2cccc(C)c2)no1)C(=O)Nc1cccc(C)c1` had an RP-LC retention time of 1090 s.

As to `Cc1nc(-c2cc3ccccc3nc2N2CCN(c3ccccc3)CC2)no1`, the RP-LC retention time is 666 s.

`CCOC(=O)C1=C(CN2CCC(N3CCCCC3)CC2)NC(=O)NC1c1ccc(Cl)cc1` (stereo not drawn): the RP-LC retention time amounted to 599 s.

The molecule `CCN(CC)S(=O)(=O)c1cc(-c2nnc(C)o2)co1` displayed an RP-LC retention time of 737 s.

Molecule `Cn1ncc2c3ccccc3n(CC(=O)N3CCN(Cc4ccccc4)CC3)c2c1=O` displayed an RP-LC retention time of 639 s.

Molecule `CC1=C(c2ccc(C)cc2)S(=O)(=O)N=C1N1CCCN(C(=O)c2ccoc2)CC1` gave an RP-LC retention time of 786 s.

Molecule `Cc1ccc(C)c(C(=O)Nc2cc(-c3cccnc3)no2)c1` showed an RP-LC retention time of 585 s.

In turn, `CCn1c(C)c(C(=O)C(C)N(CCC(C)C)C(=O)c2ccccc2Cl)c(C)c1C(=O)OC` (stereo not drawn) returned an RP-LC retention time of 1210 s.

Regarding `CN1CC(=O)NC(c2ccccc2Br)C1=O` (stereo not drawn), the RP-LC retention time was determined as 550 s.

The molecule `Cc1ccc(C(=O)N2CCc3ccc(CNC(=O)NC(C)C)cc32)cc1` gave an RP-LC retention time of 808 s.

On to `CCOc1cccc(C2c3[nH]c4ccccc4c3CCN2C(=O)c2ccnn2C)c1` (stereo not drawn), for which the RP-LC retention time amounted to 1050 s.

Molecule `CN1C(=O)Cc2ccccc2C1C(=O)NCc1ccco1` (stereo not drawn) returned an RP-LC retention time of 668 s.

The molecule `O=S(=O)(c1cc(-c2nnc(C3CC3)o2)co1)N1CCC(Cc2ccccc2)CC1` had an RP-LC retention time of 1080 s.

Regarding `Cc1cccc(NC(=O)Cn2cnc3nc(N4CCCC(C(=O)NC5CC5)C4)sc3c2=O)c1C` (stereo not drawn), the RP-LC retention time was 688 s.

With `CCN1CCN(c2c(S(=O)(=O)c3ccc(C)c(C)c3)cnc3cc(OC)c(OC)cc23)CC1`, the RP-LC retention time worked out at 629 s.

Take `O=C(NCc1ccc(N2CCOCC2)nc1)c1ccc(Cl)s1`: the RP-LC retention time came to 618 s.

In the case of `CCSc1nnc(NC(=O)c2nnn(-c3nc4c(s3)CCCC4)c2C)s1`, the RP-LC retention time was 1190 s.

As to `O=C(c1ccc2cc[nH]c2c1)N1C[C@@H]2C[C@H]1C[C@@H]2NS(=O)(=O)c1ccccc1`, the RP-LC retention time turned out to be 766 s.

Regarding `COCCCNC(=O)C1CCC(=O)N(c2ccc(OC)cc2)C1c1ccc(OC)c(OC)c1` (stereo not drawn), the RP-LC retention time was 612 s.

Take `COc1ccc(N2CC(c3noc(-c4cccc(OC)c4)n3)CC2=O)cc1` (stereo not drawn): the RP-LC retention time stood at 922 s.

In turn, `CCCc1cc(N2CCN(C(=O)c3ccsc3)CC2)nc2nnc(C)n12` showed an RP-LC retention time of 611 s.

As for `COc1ccc(-c2nc3cnccn3c2Nc2cccc(C(=O)NCc3ccco3)c2)cc1`, the RP-LC retention time was determined as 741 s.

In the case of `COC(=O)c1ncn2c1C(=O)N(c1ccc(C)cc1C)C(C)(C(=O)NC1CCCC1)C2` (stereo not drawn), the RP-LC retention time amounted to 753 s.

As for `CCc1ccccc1NC(=O)COc1cc(C)nc(N2CCN(c3ccccc3)CC2)n1`, the RP-LC retention time was determined as 935 s.

`O=C(c1noc2c1CCCCC2)N1CCN(Cc2ccc3c(c2)OCO3)CC1` returned an RP-LC retention time of 665 s.

Take `COc1ccc(NC(=O)C2CCN(c3cncnc3N3CCN(C)CC3)CC2)cc1Cl`: the RP-LC retention time is 585 s.

In the case of `CCc1sc(NC(=O)c2cc3c([nH]c2=O)CCCC3=O)nc1-c1ccc2c(c1)CCCC2`, the RP-LC retention time was 1170 s.

As to `O=C(CCc1ccc2cc[nH]c2c1)NCc1cccs1`, the RP-LC retention time stood at 806 s.

The molecule `CCOc1ccc(Oc2cc3c(cc2NC(=O)COc2ccc(C)cc2)n(C)c(=O)c(=O)n3C)cc1` showed an RP-LC retention time of 1030 s.

`Cc1ccc(NC(=O)Cn2cnc3c(sc4nc(-c5ccccc5)ccc43)c2=O)cc1Cl` registered an RP-LC retention time of 1120 s.

For the molecule `CCc1nc2c(NC(=O)CC3CCCCC3)cccn2n1`, the RP-LC retention time was found to be 960 s.

As to `COc1ccccc1N1CCN([C@H]2CS(=O)(=O)C[C@@H]2S(=O)(=O)c2ccc(F)c(C)c2)CC1`, the RP-LC retention time stood at 864 s.

Regarding `CCSc1nc2ccc(NS(=O)(=O)c3ccc(F)c(C)c3)cc2s1`, the RP-LC retention time was determined as 1060 s.

Regarding `CC1CCC(NC(=O)C2CCCN(c3cn[nH]c(=O)c3)C2)CC1` (stereo not drawn), the RP-LC retention time was determined as 680 s.

With `CCCCS(=O)(=O)c1cc2c(cc1NC(=O)c1ccccc1C)n(C)c(=O)n2C`, the RP-LC retention time was determined as 853 s.

With `Cc1nc(-c2cccc(F)c2)sc1CCNC(=O)Nc1ccc2c(c1)OCO2`, the RP-LC retention time amounted to 817 s.

With `COc1ccc(-c2nnc(-c3cccc(S(=O)(=O)N4CCCC4)c3)o2)cc1OC`, the RP-LC retention time is 885 s.

In turn, `CCN1C(=O)COc2ccc(-c3csc(NC(=O)c4ccccc4)n3)cc21` registered an RP-LC retention time of 952 s.

As for `O=C(c1cc(F)ccc1F)N1CCC2(CC1)NC(=O)N(Cc1ccc(Cl)cc1)C2=O`, the RP-LC retention time was 890 s.

Molecule `CCCC(CCC)C(=O)N1CCC(Cc2nnc(C3CCOCC3)o2)C1` (stereo not drawn) registered an RP-LC retention time of 755 s.

The molecule `Cc1nnc(-c2cc(NC(=O)c3ccccc3Br)c(C)s2)o1` came in with an RP-LC retention time of 858 s.

Consider `Cn1nc(C(=O)N2CCCCC2)c2c1CCN(C(=O)CCC(=O)NCCC1=CCCCC1)C2`, for which the RP-LC retention time stood at 744 s.

For the molecule `Cn1c(=O)c2c(ncn2CC(=O)N2CCC(C)(c3noc(C4CC4)n3)CC2)n(C)c1=O`, the RP-LC retention time was 672 s.

`CC1Oc2ccccc2N(CC(=O)N2CCN(c3cc(=O)n(C)c(=O)n3C)CC2)C1=O` (stereo not drawn) gave an RP-LC retention time of 656 s.

With `O=C(CCc1c[nH]c2ccccc12)N1CCC(c2nc3ccccc3[nH]2)CC1`, the RP-LC retention time was 594 s.

Take `O=S(=O)(c1ccccc1)N1CCC2(CC1)NCCN=C2NCc1ccc(F)c(Cl)c1`: the RP-LC retention time came out at 730 s.

With `O=C(CCSc1ccccc1)Nc1cc(-c2cccs2)nn1CCO`, the RP-LC retention time was determined as 793 s.

The molecule `Cc1ccc(N2CCN(Cc3nc4nc(C)cc(N5CCOCC5)n4n3)CC2)cc1` registered an RP-LC retention time of 636 s.

As for `CN(C)CCNC(=O)c1ccc(-c2ccnc(N3CCCC3)n2)cc1`, the RP-LC retention time was 560 s.

Consider `CCN1CCN(Cc2ccc(C(=O)N3CCN(c4ccc(C)cc4)CC3)cc2)C(=O)C1=O`, for which the RP-LC retention time is 694 s.

The molecule `COc1ccc(-c2ncc3c(n2)CCN(S(=O)(=O)c2cccc(C)c2)C3)cc1` registered an RP-LC retention time of 1070 s.

For the molecule `Cc1nn(C)c(C)c1C(=O)N1CCC2(CCC2O)CC1` (stereo not drawn), the RP-LC retention time amounted to 600 s.

As to `COCC(=O)NC1CCC12CCN(C(=O)C1CCC1)CC2` (stereo not drawn), the RP-LC retention time is 661 s.

`Cc1ccsc1C(=O)Nc1ccc(N2CCN(C3CCCCC3)C2=O)nc1` came in with an RP-LC retention time of 863 s.

For the molecule `O=C(NC1CCCCC1)C1CCCN(S(=O)(=O)Cc2ccccc2Cl)C1` (stereo not drawn), the RP-LC retention time amounted to 967 s.

In turn, `Cc1ccc(N2CCC(NC(=O)c3cc(F)cc(F)c3)C2=O)cc1` (stereo not drawn) gave an RP-LC retention time of 858 s.

In the case of `CC1CCCCN1CCCNC(=O)CCCn1c(=O)c2cccn2c2ccc(Br)cc21` (stereo not drawn), the RP-LC retention time turned out to be 674 s.

Molecule `COc1ccccc1N1CCN(C(=O)CCc2c(C)n(C)c3nc(-c4ccccc4)nn3c2=O)CC1` gave an RP-LC retention time of 761 s.

For `COc1ccc(Cl)cc1NC(=O)c1nc2nc(C)cc(C(F)F)n2n1`, the RP-LC retention time was determined as 959 s.

Regarding `O=C(Cc1ccccc1F)N1CCc2[nH]cnc2C1c1ccccc1` (stereo not drawn), the RP-LC retention time is 632 s.

The molecule `Cc1noc2nc(C)n(CC(=O)Nc3ccccc3F)c(=O)c12` had an RP-LC retention time of 752 s.

`O=C1Nc2cc(C(=O)N3CCN(c4ccc(Cl)cc4)CC3)ccc2N2CCCCC12` (stereo not drawn) returned an RP-LC retention time of 638 s.

As to `COCCNC(=O)C1CCCN(C(=O)Nc2ccc(NC(=O)Nc3ccccc3)cc2)C1` (stereo not drawn), the RP-LC retention time turned out to be 676 s.

Regarding `O=C(NCCC1=CCCCC1)c1c[nH]c2ncccc12`, the RP-LC retention time was found to be 968 s.

In the case of `CCCN1CCN(C(=O)C2CCN(S(=O)(=O)c3cc(-c4noc(CC)n4)sc3C)CC2)CC1`, the RP-LC retention time was determined as 666 s.

For `COc1ccc(C)cc1NC(=O)Cn1ncc2c(c1=O)N(C1CC1)C(=O)CS2`, the RP-LC retention time was 794 s.

On to `COc1ccc(C(CC(=O)NCCN2CCCC2)N2Cc3ccccc3C2=O)cc1OC` (stereo not drawn), for which the RP-LC retention time turned out to be 609 s.

For `CCCCNC(=O)C1CCN(Cc2cc3ccccc3n2Cc2ccccc2Cl)CC1`, the RP-LC retention time was 788 s.

For `Cc1ccc(NC(=O)CN2C(=O)CCc3cc(S(=O)(=O)N4CCCCC4C)ccc32)cc1C` (stereo not drawn), the RP-LC retention time was 720 s.

With `COc1ccccc1-c1nnc(-c2cc(S(=O)(=O)N3CCC(C)CC3)ccc2Cl)o1`, the RP-LC retention time turned out to be 1160 s.

In the case of `Cc1cccc(Cn2c(CN3CCC(C(=O)NCc4cccs4)CC3)cc3ccccc32)c1`, the RP-LC retention time came out at 805 s.
